In brackets after ≈: the same amount, converted by molar mass. Counter-ions that a name gives are not always drawn. Like-named read-outs stand apart in the source and are kept apart here.
How the values were obtained:
HepG2 cell line = test: In vitro cytotoxicity assay (MTS tetrazolium reduction); assay type: cell-based; conditions: HepG2, 48 h
Protocol: In an embodiment, in vitro cytotoxicity assay was carried out. In vitro cytotoxicity assay was performed in HepG2 cell line using a tetrazolium reduction assay for cell viability evaluation (MTS reduction as described by Cory A. et al (Cancer Commun. 1991, 3 (7), 207-212)). The assay was performed in 96-well plates for 48 h at 37° C. and 5% CO2 in incubation medium (low glucose DMEM with Glutamax, 10% FBS, 1% Pen/Strep and DMSO). Cells were exposed to 8 different compound concentrations in successive dilutions (usually, base 2), plus a positive control (a compound in a concentration known to decrease cell viability above 50%) and a negative control (incubation medium). Six replicate wells were assayed for each condition. Compound stock solutions were prepared in DMSO at 20 mM, whenever possible, filter sterilized, aliquoted and stored at −20° C. The maximum compound concentrations tested depend on its solubility in incubation medium, and on the maximum DMSO percentage allowable without loss of cell viability. At the end of the incubation period, tetrazolium reagent was added (CellTiter 96′ AQueous Solution from Promega); cells were incubated for another 3 hours in order to promote tetrazolium reduction to formazan by viable cells. The amount of soluble formazan produced was evaluated by 490 nm absorbance reading in a spectrophotometer plate reader. […] Whenever possible, IC50 was calculated as the concentration of compound that reduces cell viability by 50%.

[1] = test system: H37Rv M. tuberculosis (strain ATCC 25618); test: Mycobacterium tuberculosis susceptibility assay REMA (resazurin microtiter assay); assay type: cell-based; conditions: for MIC: Mycobacterium tuberculosis, 144 h, read-out: REMA MIC; for REMA MIC: Table 2
[2] = Homo sapiens, Table 1, cytotoxicity, MTS, read-out: IC50
[3] = Table 1, MTB growth REMA, H37Rv, Middlebrook 7H9, 6 days at 37° C.
[4] = Table 2, cytotoxicity, MTS, read-out: IC50
[5] = MTB growth REMA, H37Rv, Middlebrook 7H9, 6 days at 37° C.

Which results are given for `COc1cccc2ccc(N3CCC(c4nc(-c5ccc(N6CCNCC6)nc5)no4)CC3)nc12` [Compound 34, 5-(1-(8-methoxyquinolin-2-yl)piperidin-4-yl)-3-(6-(piperazin-1-yl)pyridin-3-yl)-1,2,4-oxadiazole]?
IC50 (HepG2 cell line; [2]): < 20 µM; MIC [1, 3]: 15.6 to 31.5 µM (≈ 7.36 to 14.9 µg/mL)

For `COc1cccc2ccc(N3CCC(c4nc(-c5ccc(Cl)nc5)no4)CC3)nc12` [Compound 31, 3-(6-chloropyridin-3-yl)-5-(1-(8-methoxyquinolin-2-yl)piperidin-4-yl)-1,2,4-oxadiazole hydrochloride], which IC50 (HepG2 cell line; Homo sapiens) is on record?
The IC50 was 20 to 50 µM.

What about the MIC [1] of the same molecule?
Its MIC is 15.6 to 31.5 µM.

For `COc1cccc2ccc(N3CCC(c4nc(-c5ccc(C(F)(F)F)nc5)no4)CC3)nc12` [Compound 11, 5-(1-(8-methoxyquinolin-2-yl)piperidin-4-yl)-3-(6-(trifluoromethyl)pyridin-3-yl)-1,2,4-oxadiazole], which IC50 (HepG2 cell line; Homo sapiens) is on record?
The IC50 was 20 to 50 µM.

What about the MIC [1] of the same molecule?
The MIC was under 7.8 µM.

How did the IC50 (HepG2 cell line; [2]) turn out when `c1cncc(-c2noc(C3CCN(c4ccc5cc(-c6ccncc6)ccc5n4)CC3)n2)c1` [Compound 27, 3-(pyridin-3-yl)-5-(1-(6-(pyridin-4-yl)quinolin-2-yl)piperidin-4-yl)-1,2,4-oxadiazole] was run?
Its IC50 is over 100 µM.

What about the IC50 (HepG2 cell line; [4]) of the same molecule?
The IC50 was over 100 µM.

What about the MIC [1, 3] of the same molecule?
Its MIC is under 7.8 µM.

What about the “REMA MIC” value [1, 5] of the same molecule?
Its value is “++++ (<7.8)”.

Which IC50 (HepG2 cell line; [2]) does the source give for `COc1cccc2ccc(N3CCC(c4nc(-c5ccc(O)cc5)no4)CC3)nc12` [Compound 24, 4-(5-(1-(8-methoxyquinolin-2-yl)piperidin-4-yl)-1,2,4-oxadiazol-3-yl)phenol] here?
The IC50 was over 100 µM.

What about the IC50 (HepG2 cell line; [4]) of the same molecule?
Its IC50 is over 100 µM.

And the MIC [1, 3]?
Its MIC is 7.8 to 15.6 µM (≈ 3.14 to 6.28 µg/mL).

What about the “REMA MIC” value [1, 5] of the same molecule?
The value was “+++ (7.8-15.6)”.

With `COc1cc(OC)cc(-c2noc(C3CCN(c4ccc5cccc(OC)c5n4)CC3)n2)c1` [Compound 6, 3-(3,5-dimethoxyphenyl)-5-(1-(8-methoxyquinolin-2-yl)piperidin-4-yl)-1,2,4-oxadiazole] as the molecule, how does the IC50 (HepG2 cell line; Homo sapiens) read?
The IC50 was over 100 µM.

And the IC50 (HepG2 cell line; Table 2, cytotoxicity, MTS)?
The IC50 was over 100 µM.

And the MIC [1]?
The MIC was 7.8 to 15.6 µM (≈ 3.48 to 6.97 µg/mL).

What about the “REMA MIC” value [1, 5] of the same molecule?
Its value is “+++ (7.8-15.6)”.

With `COc1cccc2ccc(N3CCC(c4nc(-c5cccc(C(F)(F)F)c5)no4)CC3)nc12` [Compound 7, 5-(1-(8-methoxyquinolin-2-yl)piperidin-4-yl)-3-(3-(trifluoromethyl)phenyl)-1,2,4-oxadiazole] as the molecule, how does the IC50 (HepG2 cell line; Homo sapiens) read?
Its IC50 is over 100 µM.

What about the MIC [1] of the same molecule?
The MIC was 15.6 to 31.5 µM (≈ 7.09 to 14.3 µg/mL).

How did the IC50 (HepG2 cell line; Homo sapiens) turn out when `COc1cccc2ccc(N3CCC(c4nc(-c5ccc(N6CCCCC6)nc5)no4)CC3)nc12` [Compound 33, 5-(1-(8-methoxyquinolin-2-yl)piperidin-4-yl)-3-(6-(piperidin-1-yl)pyridin-3-yl)-1,2,4-oxadiazole] was run?
The IC50 was over 100 µM.

And the IC50 (HepG2 cell line; Table 2, cytotoxicity, MTS)?
Its IC50 is over 100 µM.

And the MIC [1]?
The MIC was under 7.8 µM.

What about the “REMA MIC” value [1, 5] of the same molecule?
The value was “++++ (<7.8)”.

What does the source list for `COc1cccc2ccc(N3CCC(c4nc(-c5cccnc5)no4)CC3)nc12` [Compound 10, 5-(1-(8-methoxyquinolin-2-yl)piperidin-4-yl)-3-(pyridin-3-yl)-1,2,4-oxadiazole hydrochloride]?
IC50 (HepG2 cell line; Homo sapiens): 50 to 100 µM; MIC [1]: 15.6 to 31.5 µM

What does the source list for `COc1ccc2nc(N3CCC(c4nc(-c5cccnc5)no4)CC3)ccc2c1` [Compound 21, 5-(1-(6-methoxyquinolin-2-yl)piperidin-4-yl)-3-(pyridin-3-yl)-1,2,4-oxadiazole]?
IC50 (HepG2 cell line; [2]): > 100 µM; IC50 (HepG2 cell line; [4]): > 100 µM; MIC [1, 3]: < 7.8 µM; REMA MIC [1, 5]: ++++ (<7.8)

How did the IC50 (HepG2 cell line; Homo sapiens) turn out when `Clc1cccc2ccc(N3CCC(c4nc(-c5cccnc5)no4)CC3)nc12` [Compound 18, 5-(1-(8-chloroquinolin-2-yl)piperidin-4-yl)-3-(pyridin-3-yl)-1,2,4-oxadiazole hydrochloride] was run?
Its IC50 is 50 to 100 µM.

And the MIC [1]?
Its MIC is 15.6 to 31.5 µM.

What does the source list for `COc1cccc2ccc(N3CCC(c4nc(-c5ccc(N6CCCC6)nc5)no4)CC3)nc12` [Compound 50, 5-(1-(8-methoxyquinolin-2-yl)piperidin-4-yl)-3-(6-(pyrrolidin-1-yl)pyridin-3-yl)-1,2,4-oxadiazole hydrochloride]?
IC50 (HepG2 cell line; Homo sapiens): > 100 µM; IC50 (HepG2 cell line; Table 2, cytotoxicity, MTS): > 100 µM; MIC [1]: 7.8 to 15.6 µM; REMA MIC [1, 5]: +++ (7.8-15.6)

How did the IC50 (HepG2 cell line; Homo sapiens) turn out when `COc1cccc2ccc(N3CCC(c4nc(-c5ccc(C(F)(F)F)cc5)no4)CC3)nc12` [Compound 5, 5-(1-(8-methoxyquinolin-2-yl)piperidin-4-yl)-3-(4-(trifluoromethyl)phenyl)-1,2,4-oxadiazole hydrochloride] was run?
Its IC50 is 50 to 100 µM.

And the MIC [1]?
Its MIC is 7.8 to 15.6 µM.

With `COc1cccc2ccc(N3CCC(c4nc(-c5ccc(NCCO)nc5)no4)CC3)nc12` [Compound 35, 2-((5-(5-(1-(8-methoxyquinolin-2-yl)piperidin-4-yl)-1,2,4-oxadiazol-3-yl)pyridin-2-yl)amino)ethan-1-ol hydrochloride] as the molecule, how does the IC50 (HepG2 cell line; Homo sapiens) read?
Its IC50 is over 100 µM.

What about the MIC [1] of the same molecule?
Its MIC is 15.6 to 31.5 µM.

— patent US20240279217A1, “Heterocyclic compounds for the treatment of tuberculosis” (TECNIMEDE - SOCIEDADE TÉCNICO-MEDICINAL, SA, priority 2021, published 2024)
